Laboratory results from patent US10517889B2, “Modulators of SMAD7 expression” (Ionis Pharmaceuticals, Inc., priority 2017, dated 2019).
Strand notation (5' to 3'): a small letter for the sugar, then the base; units joined by * are phosphorothioate-linked, units joined directly phosphodiester-linked; [ ] holds rarer units or linkages, { } end groups; capitals alone tell only the bases. k = constrained ethyl (cEt); [5mC] = 5-methylcytosine; d = 2'-deoxy (DNA)

Columns and labels:
human SMAD7 mRNA [1] = test: Antisense inhibition of human SMAD7 mRNA expression in Hep3B cells by 3-10-3 cEt gapmers, 10,000 nM, electroporation (Example 2); type: cell-based; conditions: Hep3B cells, electroporation with 10,000 nM antisense oligonucleotide, approximately 24 hours
Method in brief: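 Hep3B cells (20,000/well) were electroporated with 10,000 nM 3-10-3 cEt gapmer (16-mer, phosphorothioate, 5-methylcytosines) and harvested after about 24 h. SMAD7 mRNA quantified by RT-qPCR with primer probe set RTS5062, normalized to total RNA by RiboGreen; percent inhibition relative to untreated cells.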

human SMAD7 mRNA [2] = test: Dose-dependent inhibition of human SMAD7 mRNA expression in Hep3B cells (Example 3, Study 1 and 2); type: cell-based; conditions: electroporation; for % inhibition of SMAD7 mRNA expression: approximately 16 hours; for IC50: Study 2 (740-20000 nM)
Protocol: The antisense oligonucleotides were tested in a series of experiments that had similar culture conditions as described below.
(§1) Cells were plated at a density of 20,000 cells per well and transfected using electroporation with 0.31 μM, 1.25 μM, 5.00 μM, or 20.00 μM concentrations of antisense oligonucleotide, as specified in the Tables below. ION 483663 was included in the assays for comparison. After a treatment period of approximately 16 hours, RNA was isolated from the cells and SMAD7 mRNA levels were measured by quantitative real-time PCR. Primer probe set RTS5062 was used to measure human SMAD7 mRNA levels. SMAD7 mRNA levels were adjusted according to total RNA content, as measured by RIBOGREEN®. Results are presented as percent inhibition of SMAD7 mRNA expression, relative to untreated control cells.
The half maximal inhibitory concentration (IC50) of each oligonucleotide is also presented.
as §1, with “0.74” for “0.31”, “2.22” for “1.25”, “6.67” for “5.00”, “below.” for “below. ION 483663 was included in the assays for comparison.”

[3] = RTS5062, percent inhibition of SMAD7 mRNA relative to untreated control cells
[4] = 740 nM, Study 2, relative to untreated control cells
[5] = primer probe set RTS5062, relative to untreated control cells
[6] = SMAD7 mRNA by RT-PCR (RTS5062), relative to untreated control cells

Substance | % Inhibition (human SMAD7 mRNA [1]; [3]) | % inhibition of SMAD7 mRNA expression (human SMAD7 mRNA [2]; [4]) | % inhibition of SMAD7 mRNA expression (human SMAD7 mRNA [2]; 2220 nM, Study 2) | % inhibition of SMAD7 mRNA expression (human SMAD7 mRNA [2]; 6670.0 nM, Study 2) | % inhibition of SMAD7 mRNA expression (human SMAD7 mRNA [2]; 20000.0 nM, Study 2) | IC50 (human SMAD7 mRNA [2]) | % Inhibition (human SMAD7 mRNA [1]; [5]) | % Inhibition (human SMAD7 mRNA [1]; [6]) | % inhibition of SMAD7 mRNA expression (human SMAD7 mRNA [1]; [5])
799669 (antisense kT*kA*kT*dG*dA*d[5mC]*dA*dG*dA*dT*dG*d[5mC]*d[5mC]*kA*kG*k[5mC]) [compound 799669] | 81% | 47% | 72% | 82% | 95% | 3 µM | – | – | –
790614 (kG*kA*kG*dA*dA*dT*dG*d[5mC]*dT*dT*d[5mC]*dT*d[5mC]*kT*kT*kG; antisense) [compound 790614] | – | 0% | 29% | 45% | 54% | 11 µM | 70% | – | –
799509 (antisense kA*kG*kA*dA*dA*d[5mC]*dA*dG*dT*d[5mC]*dT*d[5mC]*d[5mC]*kA*k[5mC]*kA) [compound 799509] | – | 21% | 54% | 69% | 87% | 12 µM | – | 57% | –
799689 (antisense kT*kG*k[5mC]*dT*dA*d[5mC]*dA*dG*dT*dG*dT*d[5mC]*dA*k[5mC]*k[5mC]*kA) [compound 799689] | 63% | 34% | 49% | 65% | 73% | 5 µM | – | – | –
799711 (antisense kG*kG*kT*d[5mC]*dA*dA*dA*d[5mC]*dT*dT*dG*dT*dG*kG*kT*kA) [compound 799711] | 60% | 36% | 47% | 51% | 54% | 5 µM | – | – | –
830131 (antisense k[5mC]*k[5mC]*k[5mC]*dA*d[5mC]*d[5mC]*dT*d[5mC]*d[5mC]*dG*dA*dG*dG*k[5mC]*kA*k[5mC]) [compound 830131] | – | 34% | 48% | 51% | 61% | 5 µM | – | 68% | –
799496 (antisense kG*kG*kG*dT*dG*dA*dG*dG*dT*dG*dG*d[5mC]*dT*kG*k[5mC]*kG) [compound 799496] | – | 3% | 12% | 34% | 69% | 3 µM | – | – | 72%
830100 (kG*kG*kA*dG*d[5mC]*dT*d[5mC]*dA*dA*dA*d[5mC]*dT*dT*kT*kG*kA; antisense) [compound 830100] | – | 3% | 8% | 38% | 69% | 2 µM | – | 61% | –
799118 (antisense kA*kG*kA*dG*d[5mC]*dT*dT*dA*dA*d[5mC]*dA*d[5mC]*dA*k[5mC]*kA*kG) [compound 799118] | – | 0% | 16% | 50% | 75% | < 0.7 µM | 71% | – | –
